Data as given in patent US20090097026A1, “COLOR MEASUREMENTS OF RECONSTITUTED TIGECYCLINE AND DEGRADANT THEREOF” (Wyeth, priority 2007, published 2009).

Assays:
[1] = Color value of reconstituted tigecycline and tigecycline API spiked with Compound I; format: physicochemical; conditions: spiked into reconstituted tigecycline and tigecycline API; visual observation
Protocol: The spiking concentrations required to produce a clear color change in tigecycline (tigecycline for injection 50 mg/vial (lactose formulation)) was characterized using both a Hunterlab UltraScan XE color spectrophotometer and a quantitative HPLC method. The threshold for visual green color resulting from spiking with Compound I colored degradant was determined for each category of tigecycline samples. An excellent linear correlation (R>0.99) between the concentration of Compound I and the calculated color value is observed. The spiking of tigecycline with ca. 0.045 concentration Compound I results in observation of a slightly green color in the reconstituted tigecycline and tigecycline API. This green color is more pronounced at the higher Compound I concentration. Tables 1, 2, 3 and 4 summarize the calculated color values and HPLC results for tigecycline Registration stability batches (CR0040-50-01, CR0040-50-02, CR0040-50-03), validation stability batches (B41133, B41404, B41710) and API used in the validation stability batches (3000002665, 2000140691, 2000140693). As per the color methods employed the calculated color value is calculated from the measured CIEL*a*b* values using the equation below:
Calculated Color Value=2.19×L*+2.59×a*−0.48×b*
The samples were tested immediately after reconstitution according to the label directions (5.3 ml of 0.9% saline). […]

[2] = Stability / oxidative degradation observations; format: physicochemical; conditions: result in words
From the text: Compound I was isolated from forced degradation samples of tigecycline and is unstable. This blue compound was characterized by LC-MS/MS and NMR as an iminoquinone derivative of tigecycline, an oxidative degradant with a positive ionic formula of C29H38N5O10 formed when tigecycline is exposed to air for twenty-four hours. A linear correlation (R>0.99) between the concentration of Compound I and the calculated color value was discovered. In substantially pure form, Compound I is useful as a test standard for determining the concentration of Compound I in a sample of Tigecycline. Compound I may be obtained in substantially pure form from the compound Tygecycline according to the following method: Tygecycline is degraded at room temperature by dissolving it in water open to air and stirring for a few hours until the solution changes color from yellow/orange to dark green. […]
Compound I was studied by NMR spectroscopy as well. […] A highly intense singlet peak at δH 3.59 was assigned to methyl protons of the C-7 dimethyl amino group, and their associated carbons were detected at δC 47.1 in the HSQC spectrum. […]

SMILES	concentration of Compound I that results in a slightly green color [1]	stability [2]
CN(C)c1c(O)c(C(N)=O)c(O)c(O)c1C[C@H]1C(C(=O)O)=C(O)C2=C(C(=[N+](C)C)C=C(NC(=O)CNC(C)(C)C)C2=O)[C@@H]1O [Compound I]	ca. 0.045	–
CN(C)c1cc(NC(=O)CNC(C)(C)C)c(O)c2c1C[C@H]1C[C@H]3[C@H](N(C)C)C(O)=C(C(N)=O)C(=O)[C@@]3(O)C(O)=C1C2=O [tigecycline]	–	susceptible to oxidative degradation
